Test results reported in patent US20230302131A1, “MPC INHIBITION FOR PRODUCING T-CELLS WITH A MEMORY PHENOTYPE” (UNIVERSITÉ DE LAUSANNE, priority 2020, published 2023).

Legend:
OT1 T cells = assay: RNA sequencing of OT1 T cells; assay type: cell-based, mouse; settings: day 7; compared to DMSO
Experimental: To evaluate the effects of MPC inhibition on T cell differentiation, OT1 splenocytes were cultured in the presence of 1 μg/ml ovalbumin-derived N4 (SIINFEKL) peptide, 100 IU/ml recombinant human IL-2 (rhIL-2) and the MPC inhibitor (MPCi) UK5099 at 75 μM or control DMSO for 3 days. The inhibitor or DMSO was then washed away and the cells were cultured for 4 more days in the presence of 100 IU/ml IL-2 and 10 ng/ml rhIL-7 (FIG. 1A). […] Thus, the increase in the memory markers upon MPCi in vitro treatment occurs at the transcriptional level.
[…] Purity-filtered reads were adapters and quality trimmed with Cutadapt (v. 1.8, Martin 2011). Reads matching to ribosomal RNA sequences were removed with fastq_screen (v. 0.9.3). Remaining reads were further filtered for low complexity with reaper (v. 15-065, Davis et al. 2013). Reads were aligned against Mus musculus.GRCm38.86 genome using STAR (v. 2.5.2b, Dobin et al. 2013). The number of read counts per gene locus was summarized with htseq-count (v. 0.6.1, Anders et al. 2014) using Mus musculus.GRCm38.86gene annotation. Quality of the RNA-seq data alignment was assessed using RSeQC (v. 2.3.7, Wang et al. 2012). Reads were also aligned to the Mus musculus.GRCm38.86 transcriptome using STAR (v. 2.5.2b, Dobin et al. 2013) and the estimation of the isoforms abundance was computed using RSEM (v. 1.2.31, Li and Dewey 2011). Statistical analysis was performed for genes in R (R version 3.4.0). An analysis with all genes, including mitochondria, was done. Genes with less than one count per million in all samples were filtered out. Library sizes were scaled using TMM normalization (EdgeR package version 3.14.0; Robinson et al. 2010) and log-transformed with EdgeR cpm function.
Differential expression was computed with limma (Ritchie et al. 2015) by fitting the samples into a linear model using all conditions as factors and correcting for batch effect by introducing factors for the replicates (=paired analysis).

[1] = system: B16 melanoma tumors expressing HER2; assay: HER2-CAR T cell production with UK5099 and adoptive transfer into mice with B16 tumors expressing HER2; assay type: in vivo, mouse
Experimental: For each retroviral preparation, 8×10^6 Phoenix ECO cells (ATCC, CRL-3214) were plated in a T150 tissue culture flask in RPMI medium supplemented with 10% FCS, 10 mM HEPES and 50 U/ml Penicillin-Streptomycin. On the next day, cells were transfected with 21 μg of the retroviral construct with Turbofect transfection reagent (Thermo Fischer Scientific), according to the manufacturer protocol. The medium was changed daily and collected at 48 h and 72 h post transfection. 48 h and 72 h virus supernatants were pooled and sedimented at 22000rcf for 2 h at 4° C. Finally, retrovirus pellets were resuspended in 2 ml of full RPMI medium and divided in 8 aliquots of 250 μl each, which were snap-frozen on dry ice and stored at −80° C.
Spleens from wild type CD45.1.2 mice were smashed on a 70 µm cell strainer. CD8 T cells were purified using the EasySep™ Mouse CD8+ T Cell Isolation Kit (StemCell) according to the manufacturer protocol. 0.5×10^6 CD8 T cells were plated in 48 well plates in 0.5 ml of complete RPMI 1640 medium supplemented with 10% FCS, antibiotics and 50 IU/ml of recombinant human IL-2, and exposed to either DMSO or 20 μM UK5099. Mouse T-cells were activated with Activator CD3/CD28 Dynabeads (Gibco) at a ratio of 2 beads per cell. Retroviral infection was conducted at 37° C. for 24 h. Untreated 48-well plates were coated for 24 h with […] of recombinant human fibronectin (Takara Clontech) at 4° C., followed by PBS 2% BSA for 30 min at RT and finally washed with PBS. One aliquot of concentrated retroviruses was plated in each fibronectin-coated 48-well plates and centrifuged for 90 min at 2000rcf and 32° C. Then, 0.5×10^6 of 24 h-activated CD8 T cells were added on top of the viruses and spun for 10 min at 400rcf and 32° C. On day 3, the medium was replaced with 10 IU/ml recombinant human IL-2, 10 ng/ml recombinant human IL-7 and 10 ng/ml recombinant human IL-15, containing either DMSO or 20 μM UK5099. Cells were then split every second day.
CD45.2 C57BL/6 mice were engrafted subcutaneously with 4×10^5 B16F10 tumors modified to express HER2. Six days later, mice were lymphodepleted with 100 mg/kg cyclophosphamide (Sigma Aldrich, C7397) injected i.p., and homogeneous groups were constituted with regard to tumor volume. T cells (5×10^6) were adoptively transferred i.v. on the next day. Tumor volumes were measured three times a week with a caliper and calculated using the formula: V=π×[d2×D]/6, where d is the minor tumor axis and D is the major tumor axis. Tumors were collected and separated from skin. Single cell suspensions were obtained with the Mouse Tumor Dissociation Kit (Miltenyi, 130-096-730) according to the manufacturer protocol. Spleen and draining lymph node were smashed on a 70 µm cell strainer. Single cell suspensions were stained with antibodies before flow cytometry analysis.
Polyclonal CD8 T cells from wild type mice were activated in the presence of DMSO or 20 μM UK5099 and then retrovirally transduced with a control blue fluorescent protein-expressing retroviral construct (BFP) or with HER2-CAR (FIG. 6A). […] More UK5099-HER2CAR T cells were engrafted in the tumor-draining lymph nodes, while CAR T cell numbers in the spleen were similar (FIGS. 6C and 6D). […] As in the spleen, more tumor-infiltrating UK5099-treated CAR T cells expressed TCF1 (FIG. 6G). […] Finally, fewer UK5099-treated CAR T cells were expressing the inhibitory molecules PD1 and TIM3, indicating a less exhausted phenotype (FIG. 6J).

[2] = 20 μM during production, vs DMSO
[3] = co-expression of TCF1 with PD1, vs DMSO

## N#CC(=Cc1cn(-c2ccccc2)c2ccccc12)C(=O)O [UK5099, 2-cyano-3-(1-phenyl-1H-indol-3-yl)-2-propenoic acid]
OT1 T cells
  Ccr7 expression, RNA sequencing: increased
  Sell (CD62L) expression, RNA sequencing: at least 1.5 fold
  Tcf7 expression, RNA sequencing: increased
[1]; [2]
  CAR T cell numbers in the spleen: similar
  HER2CAR T cells engrafted in the tumor-draining lymph nodes: More
  percentage of splenic HER2CAR T cells expressing TCF1: higher percentage
[1]; CAR T cells produced with 20 μM UK5099, 5×10^6 T cells i.v.
  tumor growth after HER2CAR T cell ACT: significantly suppress tumor growth
[1]; [3]
  progenitor exhausted T cells (TCF1-positive) among CAR T cells in the tumor: more
  terminally differentiated exhausted T cells (TCF1-negative) among CAR T cells in the tumor: less
[1]; in the tumor, vs DMSO
  CAR T cells expressing the inhibitory molecules PD1 and TIM3: fewer
[1]; per mg of tumor, vs DMSO
  CAR T cells in tumors: significantly more
[1]; vs DMSO
  tumor-infiltrating CAR T cells expressing TCF1: more
